This is an account of results in a melting point compilation (Tetko et al.; mined from patent text by program, amines drawn as free bases though some values may be those of a salt).

Structures are written as SMILES.

For `O[C@@H]1CN(Cc2ccccc2)C[C@H]1Oc1ccc(Cl)cc1` (relative stereo), the melting point (in general, the temperature of the solid-liquid transition) is 101 to 104 °C.
Molecule `O=C(O)CC1C2=C(CCCC2)C(=O)N1c1ccc(Cl)cc1` (configuration not stated) registered a melting point of 177 to 178 °C.
In the case of `NS(=O)(=O)c1cnc(-c2cn(-c3cc(-c4ccc(C(F)(F)F)cc4)cc(C(F)(F)F)n3)cn2)s1`, the melting point is over 250 °C.
Molecule `COc1ccc(C2(C=O)C=CC=CC2)cc1OCCCN1CCC(c2noc3cc(F)ccc23)CC1` (configuration not stated) returned a melting point of 140 to 141 °C.
Molecule `C=CC(=O)Nc1ccc2[nH]nnc2c1` gave a melting point of 248 to 253 °C.
In turn, `COC(=O)COc1ccc(SCc2cc(-c3ccc(Cl)cc3)no2)c2c1CCC2` returned a melting point of 92 to 94 °C.
Take `Cc1ccc(-c2cc(C(=O)O)nn2Cc2ccc(C)c(Cl)c2)cc1`: the melting point came out at 108 °C.
`CC(C)(C)OC(=O)N1CCn2c(c(C#N)c(Cl)c2C2CC2)C1`: the melting point lay within 132 to 134 °C.
The molecule `NCC1Cc2cccc(-c3ccccc3C(F)(F)F)c2O1` (configuration not stated) yielded a melting point of 109 to 111 °C.
With `COc1ccc(C2Sc3c(ccc4ccccc34)N(CCN(C)C)C(=O)C2OC(C)=O)cc1` (configuration not stated), the melting point was in the range of 122 to 124 °C.
Molecule `Cc1ccc(S(=O)(=O)OCC2Cc3cccc(-c4ccsc4)c3O2)cc1` (configuration not stated) yielded a melting point of 90 to 92 °C.
Molecule `Cc1ccc2[nH]c(NC(=O)c3ccccc3)nc(=O)c2c1` gave a melting point of 240 to 242 °C.
In turn, `O=C(NCCCn1ncnn1)c1ccccc1NS(=O)(=O)c1cccc(C(F)(F)F)c1` yielded a melting point of 67 to 69 °C.
As for `CC1N=C(c2ccccc2)c2cc(Cl)ccc2NC1=S` (configuration not stated), the figure is 250 °C; as for `N=C(N)c1ccc(-c2ccc(Nc3ccc(CCC(=O)O)cc3)nn2)cc1`, over 260 °C; as for `Cc1cc2c(cc1S(=O)(=O)c1ccc(F)cc1)OC(C(=O)O)O2` (configuration not stated), 157 to 158 °C.
`O=C(O)CNC=C(Nc1cc(Cl)cc(Cl)c1)[N+](=O)[O-]` returned a melting point of 207 °C.
For the molecule `CCOc1ccc(C(=O)CCC(=O)O)c(OCC)c1`, the melting point was in the range of 139 to 141 °C.
With `Clc1cccc2cc3cccc(Cl)c3cc12`, the melting point is 155 °C.
`O=C(NCCO)C1CCNCC1` gave a melting point of 107 to 108 °C.
As for `COc1cc2c(cc1OC)CN(c1nc(N)c3cc(OC)c(OC)cc3n1)CCC2`, the melting point lay within 122 to 124 °C.
`CCOc1ccc(-n2nc(C(F)(F)F)nc2-c2ccc(S(C)(=O)=O)cc2)cc1` gave a melting point of 112 °C.
Take `O=C(NC(=O)c1c(F)cccc1F)Nc1ccc(-c2ccc(Cl)cc2)cn1`: the melting point is 229 to 234 °C.
`c1ccc2nc(Cn3ccnc3)ccc2c1` had a melting point of 106 to 107 °C.
For `c1n[nH]nc1C12CCCN(CC1)C2` (configuration not stated) the value was 70 to 75 °C.
As for `CCOC(=O)C1COc2cc(C)c(C)cc2O1` (configuration not stated), the figure is 70 to 71 °C; as for `O=C(O)COC1=C(Cc2ccc3c(Cl)cccc3c2)C(=O)CC1`, 156 to 158 °C.
Turning to `COC(=O)c1cc(C(=O)NC(C)C(=O)OC)c2ccc(Cc3ccc(F)cc3)nc2c1O` (configuration not stated), the melting point was in the range of 157 to 158 °C.
In turn, `CN1C(=O)c2ccccc2C2(CC(=O)NC2=O)C1=O` (configuration not stated) gave a melting point of 224 to 225 °C.
Turning to `CS(=O)(=O)c1ccc(-c2coc3ccc(-c4nnc(O)o4)cc23)cc1`, the melting point was in the range of 284 to 285 °C.
In the case of `CCCCCCCCCCCC(=O)N(CCO)CCNCCO`, the melting point amounted to 94 °C.
As for `CSC(=Cc1cnn(-c2c(Cl)cc(C(F)(F)F)cc2Cl)n1)S(C)=O` (configuration not stated), the figure is 122 to 123 °C; as for `c1ccc(OCC2CCNCC2)cc1`, 42 to 43 °C.
For `O=C(O)C=Cc1ccc(/C=C/c2ccncc2)cc1` the value was over 300 °C; for `OCCCC1(c2ccccc2)OCCO1`, 39 to 42 °C.
As for `CCCC1=NN(c2ccc(Br)cc2)C(=O)C1=CNc1ccccc1CC`, the figure is 127 °C.
Consider `O=c1[nH]ncc2[nH]c(-c3ccc(OC(F)F)c(OC4CCC4)c3)cc12`, for which the melting point lay within 289 to 291 °C.
`Cc1c(-c2ccc(O)cc2)sc(C=O)c1-c1ccc(O)c(Cl)c1` showed a melting point of 234 to 236 °C.
For `Cn1c(=O)cnc2cccc(Oc3cc(-c4ccc(C(F)(F)F)cc4)ncn3)c21`, the melting point is 158 °C.
`Nc1cc(Cl)c(Cc2ccc(C(=O)c3cnc(Cl)c(Cl)c3)cc2)c(Cl)c1` had a melting point of 140 to 145 °C.
`CC1(c2cc(-c3cccc(CC4SC(N5CCCC5)=NC4=O)c3)ccc2O)CCCCC1` (configuration not stated) displayed a melting point of 109 to 110 °C.
As for `O=C(O)CCC(=O)c1cc(Cl)ccc1O`, the figure is 172 to 173 °C.
As to `CNC(=O)Nc1ccc(OCCCN2CCN(c3ccccc3)CC2)c(OC)c1`, the melting point is 167 to 169 °C.
In the case of `C=Cc1cn(-c2c(Cl)cc(C(F)(F)F)cc2Cl)nc1C#N`, the melting point lay in the range of 75 to 76 °C.
The molecule `O=C1C2CC3CCC(C2)N3C1C(c1ccccc1)c1ccccc1` (configuration not stated) displayed a melting point of 137 to 138 °C.
The molecule `Nc1c(F)c(N2CC(n3cncn3)C2)c(F)c2c1c(=O)c(C(=O)O)cn2C1CC1` gave a melting point of 293 to 295 °C.
`Cc1cc(Cl)c2c(ccc3nc(C)[nH]c32)n1` had a melting point of 314 to 330 °C.
Take `O=Cc1cc(-c2ncc(C(F)(F)F)cc2Cl)ccc1Cl`: the melting point was 94 °C.
In turn, `CSCC(C)NC(=O)c1c(I)cccc1C(=O)Nc1ccc(C2(C(F)(F)F)CC(c3ccc(Cl)cc3)=NO2)cc1C` (configuration not stated) displayed a melting point of 116 to 120 °C.
Consider `N#Cc1c[nH]cc1-c1ccccc1C(F)(F)F`, for which the melting point fell in the range of 105 to 107 °C.
For `Cc1[nH]cnc1CCC(=O)N(C)C`, the melting point fell in the range of 62 to 64 °C.
`CC1(C)CCC(C)(C)c2cc(CC#Cc3ccc(C(=O)Nc4ccc(O)cc4)cc3)ccc21` registered a melting point of 159 to 160 °C.
For `COc1ccc2cc([C@H](C)C(=O)OCCSCCO)ccc2c1` the value was 58 to 61 °C; for `Nc1c(-c2cc(Cl)ccc2O)c2c(C(F)(F)F)c(Cl)ccc2[nH]c1=O`, 139 to 140 °C.
Molecule `CC(=O)c1coc(S(N)(=O)=O)c1` had a melting point of 135 to 136 °C.
Turning to `NP(N)(=O)NC(=O)c1ccc(F)cc1`, the melting point is 255 to 257 °C.
Molecule `COc1cc2c(cc1OC)CC(N1CC(O)CC1=O)CC2` (configuration not stated) yielded a melting point of 178 to 179 °C.
Molecule `COC(=O)c1nc2n(n1)-c1ccc(Cl)cc1N(c1ccccc1)C2` displayed a melting point of 190 to 194 °C.
For `O=C1C2CCC(N2)C(=O)N1Cc1ccccc1`, the melting point was 72 °C.
Molecule `CCC(NS(C)(=O)=O)c1ccc(Cl)c2nc3n(c12)CCCN3c1ccc(Cl)cc1Cl` (configuration not stated) had a melting point of 125 to 126 °C.
The molecule `O=C(O)c1ccccc1Nc1ccc(-c2ccc(Cl)c(Cl)c2)cc1` came in with a melting point of over 220 °C.
For `O=c1[nH]c2cc(Cl)ccc2c(O)c1-c1cccc(Oc2ccccn2)c1` the value was 269 to 271 °C; for `O=C(Nc1cccc(Cl)c1C(=O)O)c1ccccc1`, 208 to 210 °C; for `Cc1c2c(cn1C)N(C)C(=O)C(OC(=O)c1ccccc1)N=C2c1ccccc1Cl` (configuration not stated), 228 to 229 °C.
In turn, `CC(C)CCCC(C)C1CC=C2C3=C(CCC21C)C1(C)CCC(O)CC1CC3` (configuration not stated) yielded a melting point of 113 to 114 °C.
For `COc1cc(C)nc(NC(=O)NS(=O)(=O)c2cccc3c2C(Cl)=CC3)n1`, the melting point is 168 to 172 °C.
Take `CCCCC1Oc2ccc(NC(C)=O)cc2C1O` (configuration not stated): the melting point lay within 134 to 137 °C.
As for `CCC(=O)Nc1c(Cl)cc(Cl)c(-c2nsc(C(F)(F)F)c2Cl)c1Br`, the figure is 156 °C; as for `O=C(CCC(=O)N1CCC(N2Cc3ccccc3NC2=O)CC1)c1ccc(Cl)c(Cl)c1`, 224 to 226 °C; as for `CCCCc1nc2cccc(C(=O)OC)c2n1Cc1ccc(-c2ccccc2C#N)cc1`, 123 to 124 °C.
For `CCOC(=O)c1ncc2[nH]c3ccc(Br)cc3c2c1C` the value was 231 to 232 °C; for `CCCCCC(=O)NC[C@H](CC(C)C)NC(=O)[C@H]1O[C@@H]1C(=O)OCC`, 120 to 121 °C; for `CCC=C1Cc2c(c(C)c(C)c3oc(C(=O)O)cc23)C1=O`, 301 °C.
The molecule `CCSc1cccc(-c2nc(=O)c3ccccc3s2)n1` had a melting point of 161 to 162 °C.
`CCOC(=O)c1nc(-c2ccccc2)[nH]c1N=NN(C)C`: the melting point is 171 °C.
As for `O=C(OO)c1ccc([N+](=O)[O-])cc1`, the figure is 251 to 252 °C; as for `Cc1nnc(-c2ccc3occ(-c4ccc(SC(F)(F)F)cc4)c3c2)o1`, 170 to 171 °C; as for `CCOC(=O)N1CCC(Nc2nc3cncnc3n2Cc2ccco2)CC1`, 172 °C.
As for `CC(C)(C)OC(=O)NCC(CC(=O)O)c1ccc(Cl)cc1` (configuration not stated), the figure is 139 to 141 °C; as for `CCOC(=O)Cc1cccc(N)n1`, 66 to 68 °C.
As for `CCCCCCCCCCCCCCCCCCNC(=O)C(N)=O`, the figure is 169 °C; as for `COc1cccc(Oc2cccc(C#CC(C)N(O)C(N)=O)c2)n1` (configuration not stated), 90 to 91 °C; as for `CCc1[nH]n(C2CCCC2)c2nc(-c3ccccc3-n3ccnc3)nc(=O)c1-2`, 192 to 194 °C.
In turn, `CCOC(=O)c1cc(Cl)cnc1NC(=O)Cc1cccc(Oc2ccccc2)c1` yielded a melting point of 103 to 104 °C.
For `ClCCN(CCCl)CCOc1cccc(Nc2c3ccccc3nc3c(OCCN(CCCl)CCCl)cccc23)c1` the value was 108 to 109 °C; for `COC(=O)C1=C(C)NC(C)=C(S(=O)(=O)c2ccccc2)C1c1ccccc1[N+](=O)[O-]` (configuration not stated), 203 °C; for `Nc1ccccc1CCc1n[nH]c2c1c(=O)n(-c1ccccc1)c1ncccc21`, 289 to 291 °C.
As for `CCc1c(-c2cccnn2)ssc1=S`, the figure is 130 °C.
For the molecule `CC1c2cccn2-c2ccc(F)cc2N1S(=O)(=O)c1ccc(O)cc1` (configuration not stated), the melting point was in the range of 180 to 182 °C.
In the case of `CCCCCCCNc1cccc(O)c1`, the melting point lay in the range of 27 to 30 °C.
As for `CCSc1cn(-c2ccccn2)c2c1C(=O)CC(C)(C)C2`, the figure is 158 to 159 °C; as for `CC(=O)Nc1ccc(S(=O)c2ccccc2)cc1` (configuration not stated), 135 to 137 °C.
